The results in this text go back to ChEMBL document CHEMBL1201862, “PubChem BioAssay data set” (2004).

SMILES strings stand for the structures.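 Exposure lasted 48 hours, with cells grown in 96-well plates and compounds tested at five concentrations. The concentration for 50% growth inhibition is given as GI50.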 Activity calls are given as the source filed them. Cut-off read from the data, not from the text of the source: active = GI50 up to about 1.1 µM and inactive = higher. Peptide text beside a SMILES is read from it. * marks the point of attachment. Boc = CC(C)(C)OC(=O)*; OBn = c1ccc(CO*)cc1

Among the test systems are ACHN; SW-620; LOX IMVI; K562; CCRF-CEM; MDA-MB-231; CAKI-1; OVCAR-3; UO-31; SN12C; OVCAR-5; SK-OV-3; DU-145; COLO 205; SF-268; SF-295; NCI/ADR-RES; MDA-MB-435; NCI-H522.
Assay in all cases: growth of human tumour cells (NCI), 48 h

Consider `N#Cc1c(-c2ccccc2)c2c([nH]c1=O)-c1cc([N+](=O)[O-])ccc1CCC2`, for which the GI50 was 24.8 µM (inactive) in the test with ACHN; 36.7 µM (inactive) in the test with SW-620; 25.5 µM (inactive) in the test on LOX IMVI; 34.1 µM (inactive) in the test on K562; 37.6 µM (inactive) with CCRF-CEM; 51.8 µM (inactive) with MDA-MB-231. Further, the GI50 was 41.3 µM (inactive) with CAKI-1; 21.2 µM (inactive) in the test with OVCAR-3; 41.4 µM (inactive) in the test with UO-31; 44.1 µM (inactive) in the test on SN12C; 83.4 µM (inactive) in the test on OVCAR-5; 36.3 µM (inactive) with SK-OV-3. The GI50 with DU-145 was 25.5 µM (inactive); in the test on COLO 205, 26.9 µM (inactive); with SF-268, 26.6 µM (inactive); with SF-295, 18.9 µM (inactive); in the test with NCI/ADR-RES, 22 µM (inactive); with MDA-MB-435 it was 32.3 µM (inactive). In addition, the GI50 in the test on NCI-H522 is 27.5 µM (inactive).
For `Cc1cccc(C(=O)O)c1CC1NCCC2c3ccccc3NC12` (stereo not given), the GI50 with ACHN, in the test on SW-620, in the test with LOX IMVI, in the test on K562, in the test with CCRF-CEM and with MDA-MB-231 was > 100 µM (inactive) in each case. The GI50 with CAKI-1 was > 100 µM (inactive); in the test with OVCAR-3, 20.7 µM (inactive); in the test on UO-31, > 100 µM (inactive); in the test on SN12C, > 100 µM (inactive); with OVCAR-5, > 100 µM (inactive); in the test with SK-OV-3, > 100 µM (inactive). Moreover, the GI50 in the test on DU-145, with COLO 205, with SF-268, in the test with SF-295, in the test on NCI/ADR-RES and in the test on MDA-MB-435 was > 100 µM (inactive) in each case. In the test with NCI-H522, the GI50 was > 100 µM (inactive).
For the compound `C=C1C2CC[C@@](C)(O)C2[C@H]2OC(=O)C(=C)[C@@H]2C[C@H]1O` (stereo not given in full), the GI50 with ACHN was 10.8 µM (inactive); in the test with SW-620, 29.7 µM (inactive); in the test with LOX IMVI, 15 µM (inactive); in the test on K562, 28.6 µM (inactive); in the test on CCRF-CEM, 2.56 µM (inactive); with MDA-MB-231, 18.8 µM (inactive). The GI50 was 12.1 µM (inactive) in the test on CAKI-1; 20.4 µM (inactive) with OVCAR-3; 13.6 µM (inactive) in the test on UO-31; 18.5 µM (inactive) with SN12C; 29 µM (inactive) in the test on OVCAR-5; 29.1 µM (inactive) with SK-OV-3. Further, the GI50 is 15.5 µM (inactive) with DU-145; 15 µM (inactive) in the test with COLO 205; 49.2 µM (inactive) in the test with SF-268; 54.6 µM (inactive) with SF-295; 18.8 µM (inactive) in the test with NCI/ADR-RES; 26 µM (inactive) in the test with MDA-MB-435. Moreover, in the test with NCI-H522, the GI50 was 14.7 µM (inactive).
Consider `CCCN1C(=O)CCC2=C1CCc1c2ccc(Cl)c1Cl`, for which the GI50 was 24.3 µM (inactive) in the test with ACHN; 48.4 µM (inactive) in the test with SW-620; 25.6 µM (inactive) in the test on LOX IMVI; 35 µM (inactive) with K562; 39.9 µM (inactive) in the test on CCRF-CEM; 16.8 µM (inactive) with MDA-MB-231. For the same compound, the GI50 in the test with CAKI-1 is 31.6 µM (inactive); with OVCAR-3 it was 23 µM (inactive); with UO-31, 53 µM (inactive); with SN12C, 28.2 µM (inactive); in the test on OVCAR-5 it was 8.41 µM (inactive); with SK-OV-3 it was 24.3 µM (inactive). The GI50 is 5.19 µM (inactive) with DU-145; 51.9 µM (inactive) in the test with COLO 205; 27 µM (inactive) in the test on SF-268; 27 µM (inactive) with SF-295; 33.8 µM (inactive) with NCI/ADR-RES; 57.9 µM (inactive) in the test with MDA-MB-435. The GI50 in the test on NCI-H522 is 23.3 µM (inactive).
For `CC(NC(=O)C(NC(=O)OC(C)(C)C)C(C)C)C(=O)N1CCCC1C(=O)NCC(=O)NC(C(=O)NCC(=O)OCc1ccccc1)C(C)C` (stereo not given) (Boc-VAPGVG-OBn; configuration not given here), the GI50 in the test with ACHN, in the test with SW-620, in the test with LOX IMVI, in the test on K562, with CCRF-CEM and in the test with MDA-MB-231 was > 100 µM (inactive) throughout. The GI50 with CAKI-1, in the test on OVCAR-3, with UO-31, in the test with SN12C, with OVCAR-5 and in the test on SK-OV-3 was > 100 µM (inactive) in each case. Further, the GI50 in the test on DU-145, with COLO 205, with SF-268, with SF-295, in the test on NCI/ADR-RES and in the test on MDA-MB-435 was > 100 µM (inactive) throughout. Further, in the test with NCI-H522, the GI50 was > 100 µM (inactive).
Take `C[C@]12CC[C@H](O)C[C@H]1CC[C@@H]1[C@@H]2CC[C@]2(C)[C@@H](C3=CC(=O)OC3)CC[C@]12O` [DIGITOXIGENIN]: the GI50 in the test with ACHN was < 0.0125 µM (active); in the test on SW-620 it was 0.118 µM (active); in the test with LOX IMVI, 0.0547 µM (active); with K562, 0.0536 µM (active); with CCRF-CEM, 0.0297 µM (active); in the test on MDA-MB-231, 0.774 µM (active). For the same compound, the GI50 in the test on CAKI-1 is 0.0357 µM (active); in the test on OVCAR-3, 0.0367 µM (active); in the test with UO-31, 0.117 µM (active); in the test with SN12C, 0.0349 µM (active); with OVCAR-5 it was 0.59 µM (active); with SK-OV-3, 0.111 µM (active). Further, the GI50 was 0.04 µM (active) with DU-145; 0.44 µM (active) in the test on COLO 205; 0.0367 µM (active) in the test on SF-268; 0.0473 µM (active) in the test on SF-295; 0.115 µM (active) in the test on NCI/ADR-RES; 0.217 µM (active) with MDA-MB-435. Also, in the test on NCI-H522, the GI50 is < 0.01 µM (active).
As to `C[n+]1c(-c2ccc(/C=N/NC(=O)c3ccc(C(=O)N/N=C/c4ccc(-c5cn6ccccc6[n+]5C)cc4)cc3)cc2)cn2ccccc21`, the GI50 is > 73.3 µM (inactive) in the test on ACHN; > 100 µM (inactive) in the test on SW-620; > 100 µM (inactive) in the test on LOX IMVI; > 100 µM (inactive) in the test on K562; > 34.3 µM (inactive) in the test on CCRF-CEM; > 74.3 µM (inactive) in the test on MDA-MB-231. For the same compound, the GI50 was > 72.9 µM (inactive) with CAKI-1; > 100 µM (inactive) in the test on OVCAR-3; > 59.8 µM (inactive) with UO-31; > 100 µM (inactive) with SN12C; > 100 µM (inactive) with OVCAR-5; > 100 µM (inactive) in the test on SK-OV-3. For the same compound, the GI50 with DU-145 is > 100 µM (inactive); in the test with COLO 205, > 100 µM (inactive); in the test on SF-268, > 100 µM (inactive); with SF-295, > 100 µM (inactive); in the test with NCI/ADR-RES, > 100 µM (inactive); in the test on MDA-MB-435 it was > 75.7 µM (inactive). Besides, the GI50 in the test with NCI-H522 was > 100 µM (inactive).
For `O=C(OCC12CC3CC(CC(C3)C1)C2)c1ccc(NCc2cc(O)ccc2O)cc1`, the GI50 in the test with ACHN is 2.01 µM (inactive); with SW-620, 3.02 µM (inactive); with LOX IMVI, 1.72 µM (inactive); in the test with K562, 0.431 µM (active); in the test with CCRF-CEM it was 0.0547 µM (active); with MDA-MB-231, 4.06 µM (inactive). For the same compound, the GI50 with CAKI-1 is 0.466 µM (active); with OVCAR-3, 0.305 µM (active); in the test with UO-31 it was 0.671 µM (active); with SN12C, 2.57 µM (inactive); with OVCAR-5, 2.1 µM (inactive); in the test with SK-OV-3, 6.08 µM (inactive). Moreover, the GI50 in the test with DU-145 is 3.54 µM (inactive); with COLO 205, 0.681 µM (active); in the test on SF-268, 3.27 µM (inactive); with SF-295, 3.76 µM (inactive); in the test on NCI/ADR-RES, 1.47 µM (inactive); with MDA-MB-435, 1.99 µM (inactive). Besides, the GI50 with NCI-H522 is 0.0662 µM (active).
For the compound `O=c1c(Cc2ccccc2Cc2c(O)oc3ccccc3c2=O)c(O)oc2ccccc12`, the GI50 with ACHN, in the test with SW-620, in the test on LOX IMVI, in the test with K562, with CCRF-CEM and with MDA-MB-231 was > 100 µM (inactive) each time. The GI50 with CAKI-1, in the test with OVCAR-3, in the test on UO-31, with SN12C, with OVCAR-5 and in the test on SK-OV-3 was > 100 µM (inactive) in each case. Further, the GI50 with DU-145, with COLO 205, in the test on SF-268, in the test on SF-295, in the test with NCI/ADR-RES and in the test with MDA-MB-435 was > 100 µM (inactive) each time. For the same compound, in the test on NCI-H522, the GI50 is > 100 µM (inactive).
Turning to `CC(=O)N1C2=CCCC2(C)c2ccccc21` (stereo not given), the GI50 in the test with ACHN was > 100 µM (inactive); in the test with SW-620, > 100 µM (inactive); in the test with LOX IMVI, > 100 µM (inactive); with K562 it was 33.8 µM (inactive); in the test with CCRF-CEM, > 100 µM (inactive); in the test on MDA-MB-231, > 100 µM (inactive). Moreover, the GI50 in the test on CAKI-1 is > 100 µM (inactive); in the test with OVCAR-3, 37.5 µM (inactive); with UO-31 it was 57.5 µM (inactive); with SN12C, 70.5 µM (inactive); in the test on OVCAR-5 it was > 100 µM (inactive); in the test on SK-OV-3, > 100 µM (inactive). For the same compound, the GI50 in the test with DU-145 is > 100 µM (inactive); in the test on COLO 205 it was 57.9 µM (inactive); with SF-268, > 100 µM (inactive); in the test with SF-295 it was > 100 µM (inactive); in the test with NCI/ADR-RES, 57.5 µM (inactive); with MDA-MB-435, > 100 µM (inactive). The GI50 in the test with NCI-H522 is 26.8 µM (inactive).
